Laboratory results reported in US11573241B2, “Total cellular iron as a marker of cancer stem cells and uses thereof” (Institut National de la Sante et de la Recherche Medicale …, priority 2016, dated 2023).
Entries after “also recorded” stand apart in the source; their conditions may differ.

Columns and labels:
[1] = system: primary breast cells; experiment: Toxicity against primary breast cells; assay type: cell-based
[2] = system: MCF-7 tumors; experiment: Perl's reaction, iron(III) in MCF-7 xenograft tumor tissue; assay type: in vivo, mice; details: 3 mg/kg body weight/day, intraperitoneal
Procedure: Xenograft tumor formation experiments. MCF-7 cell cultures were collected, enzymatically dissociated, washed with PBS, and re-suspended in a PBS/Matrigel mixture (1:1 v/v). The mixture (0.1 mL) was then implanted in the mammary fat pad of 5-week-old female AthymicNude-Fox1nu mice bilaterally (Harlan, France). Mice were maintained in individually-ventilated cages (Tecniplast, France) under constant temperature and humidity. All experiments were performed under laminar flow (Tecniplast France). Mice received estradiol supplementation (0.4 mg/kg) the same day and 7 days from cell injection, and were observed and palpated for tumor appearance. Mice were treated with AM5 (3 mg/kg body weight/day) by means of intraperitoneal injections every 5 opened days of the week. Tumor growth was measured weekly using calipers. Tumor volume was determined using the standard formula: L×W^2×0.52, where L and W are the longest and shortest diameters, respectively. All animal studies were approved by the Direction des services Vétérinaires, Prefecture de Police, Paris, France (authorization number A75-14-08) and the ethical committee (number 34) of Paris Descartes University. No randomization was used and experimenters were blinded to drug treatments and tissue analyses.
Perl's reaction. Tumors from mice were removed at time of sacrifice. Tumors were fixed with 4% PFA and embedded in paraffin. […]

[3] = system: ALDH+ iCSCL-10A2 cell subpopulation; experiment: Flow cytometry of ALDH+ CSC subpopulation in vitro; assay type: cell-based; details: 0.5 μM, 48 h
Procedure: FIG. 13. Sal and AM5 effect on an ALDH+CSC cell population in vitro. Flow cytometry measurement of the effect of 0.5 μM Sal and AM5 against ALDH+ iCSCL-10A2 cell subpopulation after treated for 48 h. DEAB is the diethylaminobenzaldehyde ALDH inhibitor.

[4] = system: HMLER CD24^low cells; experiment: Fluorescence microscopy of ferritin subcellular localization; assay type: cell-based, human; details: 6 h
[5] = system: HBL100; experiment: Sensibility to AM5; assay type: cell-based, human; details: HBL100, Non-tumoral
Procedure: (§1) Cell viability assay. Cell viability assay was carried out by plating 1000 cells/well in 96-well plates. Cells were treated as indicated for 72 h. CellTiter-Blue® Reagent (G8081, Promega) was added after 72 h treatment and cells were incubated for 1 h before recording fluorescence intensities (Excitation, 560/20 nm; Emission, 590/10 nm) using a Perkin Elmer Wallac 1420 Victor2 Microplate Reader.

[6] = system: BT474; experiment: Sensibility to AM5; assay type: cell-based, human
Procedure: as §1

[7] = system: MDA-MB-134; experiment: Sensibility to AM5; assay type: cell-based, human
Procedure: as §1

[8] = system: MDA-MB-231; experiment: Sensibility to AM5; assay type: cell-based, human; details: MDA-MB-231, CSTN
Procedure: as §1

[9] = system: T47D; experiment: Sensibility to AM5; assay type: cell-based, human; details: H+
Procedure: as §1

[10] = system: Zr75.1; experiment: Sensibility to AM5; assay type: cell-based, human; details: Zr75.1, H+
Procedure: as §1

[11] = system: HMLER CD24^high; experiment: Sensibility to AM5; assay type: cell-based, human
Procedure: as §1

[12] = system: BT549; experiment: Sensibility to AM5; assay type: cell-based, human; details: BT549, CSTN
Procedure: as §1

[13] = system: MDA-MD-157; experiment: Sensibility to AM5; assay type: cell-based, human; details: MDA-MD-157, CSTN
Procedure: as §1

[14] = system: MDA-MB-361; experiment: Sensibility to AM5; assay type: cell-based, human
Procedure: as §1

[15] = system: MCF-7; experiment: Sensibility to AM5; assay type: cell-based, human; details: MCF-7, H+
Procedure: as §1

[16] = system: SW480; experiment: Sensibility to AM5; assay type: cell-based; details: SW480, Colon
Procedure: as §1

[17] = system: SW620; experiment: Sensibility to AM5; assay type: cell-based; details: SW620, Colon
Procedure: as §1

[18] = system: cells from treated PDX 1 and 2; experiment: Limiting dilution assay, tumor-seeding capacity (ELDA); assay type: in vivo, NOD/SCID mice; details: re-implantation into secondary mice
Excerpt: Limiting dilution assay. Cells from 4-week treated mice were re-implanted into one to four secondary NOD/SCID mice with injection of 10, 50, 500 or 5000 cells for each treated tumor to functionally evaluate the proportion of residual CSCs in each treatment group (Unt., Doc, Sal, AM5) for the PDX 1 and 2. Each mouse that developed a tumor reaching a size of 10 mm was considered as a tumor-bearing mouse.
Estimation of number of CSCs in vivo. The number of mammary gland outgrowths obtained in a fat pad after cell re-implantation is currently used to evaluate the number of stem cells able to repopulate this fat pad. It is based on self-renewal and differentiation abilities, two hallmarks of stem cells. In the same manner, estimation of the number of CSCs can be obtained from tumor outgrowth data collected after limited dilution re-implantation of each group of treatments, based on tumor-initiating capacities of CSCs. For calculation, an online tool is available using Extreme Limiting Dilution Analysis (ELDA) (http://bioinf.wehi.edu.au/software/elda/) for limiting dilution analysis based on the Poisson single-hit model according to the number of outgrowths observed and the number of pat pad re-implanted for each cell dilution.

[19] = RhoNox-1 reduction assay; details: in the presence of iron (II)
Procedure: RhoNox-1 reduction assay. Experiments were carried in 96-well plate dishes. Reagent stock solutions were freshly prepared using Milli-Q water. 50 μL of solutions of Sal (800 μM), DFO (800 μM) and FeSO4 (80 μM) were mixed prior to addition of 50 μL of RhoNox-1 (40 μM) and completed with the appropriate volume of water to reach a final volume of 200 μL per well. Measurements were performed 30 min after addition of RhoNox-1 to the mix and were recorded using the PARADIGM™ Microplate Detection Platform (ex. 492 nm; em. 580 nm).

Compound | toxicity against primary breast cells [1] | iron(III) in tumor tissue [2] | effect against ALDH+ subpopulation [3] | subcellular localization of ferritin [4] | Sensibility to AM5 [5] | Sensibility to AM5 [6] | Sensibility to AM5 [7] | Sensibility to AM5 [8] | Sensibility to AM5 [9] | Sensibility to AM5 [10] | Sensibility to AM5 [11] | Sensibility to AM5 [12] | Sensibility to AM5 [13] | Sensibility to AM5 [14] | Sensibility to AM5 [15] | Sensibility to AM5 [16] | Sensibility to AM5 [17] | tumor-seeding capacity of tumor cells treated in vivo [18] | effect on iron reactivity (fluorogenic reduction of RhoNox-1) [19]
C#CCN[C@@H]1C=C[C@]2(O[C@H]([C@@H](CC)C(=O)[C@@H](C)[C@@H](O)[C@H](C)C3O[C@@H](C(CC)C(=O)O)CC[C@@H]3C)[C@@H](C)C[C@H]2C)O[C@@]12CC[C@@](C)([C@H]1CC[C@](O)(CC)[C@H](C)O1)O2 (some centres unmarked) [AM5, Sal-Propargylamine] | little toxicity | accumulation of iron(III) | selectively targeted the ALDH+ subpopulation; also recorded: more effectively than Sal | re-localization of ferritin to the lysosomal compartment | First | Second | Second | Second | Resistant | First | First | Resistant | Second | Second | First | Third | Third | decreased tumor-seeding capacity; also recorded: more potent than both Sal and Doc | –
CC[C@@H](C(=O)[C@@H](C)[C@@H](O)[C@H](C)[C@@H]1O[C@@H]([C@@H](CC)C(=O)O)CC[C@@H]1C)[C@H]1O[C@]2(C=C[C@@H](O)[C@]3(CC[C@@](C)([C@H]4CC[C@](O)(CC)[C@H](C)O4)O3)O2)[C@H](C)C[C@@H]1C [Sal, salinomycin, reference compound] | – | – | – | – | – | – | – | – | – | – | – | – | – | – | – | – | – | decreased tumor-seeding capacity | without altering its reactivity
